Assay results as given in US20260138970A1, “MODULATORS OF THE CALCIUM SIGNALING CASCADE” (FONDAZIONE TELETHON ETS, priority 2022, published 2026).

Biological target: ITPR1 (Homo sapiens, UniProt Q14643)
Test: On-nucleus patch-clamp single-channel recordings, HEKR1 cells expressing ITPR1-EYFP
Assay type: biochemical
Set-up: EYFP; expressed in transfected cells; nuclei isolated for on-nucleus patch clamp
Details: 20 μM in pipette solution
Description: Nuclear membrane patch currents were recorded in HEKR1 cells stably transfected with a plasmid encoding human ITPR1 tagged with Enhanced Yellow Fluorescent Protein (EYFP) kindly provided by Prof. Colin W. Taylor (University of Cambridge) (17). For nuclei isolation, at least 1,000,000 HEKR1-ITPR1-EYFP cells plated in a 35 mm Petri dish were used following the protocol for patch clamp on the outer nuclear membrane (18,19). Briefly, a Duall homogenizer 20 tube (Kimble Chase 885482-0020) and a tissue grind (Kimble 885480-0020) were used. 20 strokes were applied to cells suspended in NIS-0 solution (25). NIS-O solution consisted of 40 ml of sucrose buffer (150 mM KCl, 250 mM sucrose, 1.4 mM β-mercaptoethanol, 10 mM Tris-HCl; pH 7.3 with KOH) supplemented with one tablet of complete protease inhibitor cocktail (Roche) and 200 μM PMSF.
Borosilicate glass pipettes were pulled on a two-step vertical puller (Narishige) to a final resistance of around 15-20 MO, as measured in the working solution. […]
During experiments, the membrane capacitance was analogically compensated using the circuitry provided by the EPC10 patch-clamp amplifier. […] Data were analysed using the Igor software (WaveMetrics, Lake Oswego, OR, USA) supplemented by custom software kindly provided by Dr. Oscar Moran (Institute of Biophysics, CNR, Genova, Italy).

Chain of ITPR1 (Q14643 whole entry): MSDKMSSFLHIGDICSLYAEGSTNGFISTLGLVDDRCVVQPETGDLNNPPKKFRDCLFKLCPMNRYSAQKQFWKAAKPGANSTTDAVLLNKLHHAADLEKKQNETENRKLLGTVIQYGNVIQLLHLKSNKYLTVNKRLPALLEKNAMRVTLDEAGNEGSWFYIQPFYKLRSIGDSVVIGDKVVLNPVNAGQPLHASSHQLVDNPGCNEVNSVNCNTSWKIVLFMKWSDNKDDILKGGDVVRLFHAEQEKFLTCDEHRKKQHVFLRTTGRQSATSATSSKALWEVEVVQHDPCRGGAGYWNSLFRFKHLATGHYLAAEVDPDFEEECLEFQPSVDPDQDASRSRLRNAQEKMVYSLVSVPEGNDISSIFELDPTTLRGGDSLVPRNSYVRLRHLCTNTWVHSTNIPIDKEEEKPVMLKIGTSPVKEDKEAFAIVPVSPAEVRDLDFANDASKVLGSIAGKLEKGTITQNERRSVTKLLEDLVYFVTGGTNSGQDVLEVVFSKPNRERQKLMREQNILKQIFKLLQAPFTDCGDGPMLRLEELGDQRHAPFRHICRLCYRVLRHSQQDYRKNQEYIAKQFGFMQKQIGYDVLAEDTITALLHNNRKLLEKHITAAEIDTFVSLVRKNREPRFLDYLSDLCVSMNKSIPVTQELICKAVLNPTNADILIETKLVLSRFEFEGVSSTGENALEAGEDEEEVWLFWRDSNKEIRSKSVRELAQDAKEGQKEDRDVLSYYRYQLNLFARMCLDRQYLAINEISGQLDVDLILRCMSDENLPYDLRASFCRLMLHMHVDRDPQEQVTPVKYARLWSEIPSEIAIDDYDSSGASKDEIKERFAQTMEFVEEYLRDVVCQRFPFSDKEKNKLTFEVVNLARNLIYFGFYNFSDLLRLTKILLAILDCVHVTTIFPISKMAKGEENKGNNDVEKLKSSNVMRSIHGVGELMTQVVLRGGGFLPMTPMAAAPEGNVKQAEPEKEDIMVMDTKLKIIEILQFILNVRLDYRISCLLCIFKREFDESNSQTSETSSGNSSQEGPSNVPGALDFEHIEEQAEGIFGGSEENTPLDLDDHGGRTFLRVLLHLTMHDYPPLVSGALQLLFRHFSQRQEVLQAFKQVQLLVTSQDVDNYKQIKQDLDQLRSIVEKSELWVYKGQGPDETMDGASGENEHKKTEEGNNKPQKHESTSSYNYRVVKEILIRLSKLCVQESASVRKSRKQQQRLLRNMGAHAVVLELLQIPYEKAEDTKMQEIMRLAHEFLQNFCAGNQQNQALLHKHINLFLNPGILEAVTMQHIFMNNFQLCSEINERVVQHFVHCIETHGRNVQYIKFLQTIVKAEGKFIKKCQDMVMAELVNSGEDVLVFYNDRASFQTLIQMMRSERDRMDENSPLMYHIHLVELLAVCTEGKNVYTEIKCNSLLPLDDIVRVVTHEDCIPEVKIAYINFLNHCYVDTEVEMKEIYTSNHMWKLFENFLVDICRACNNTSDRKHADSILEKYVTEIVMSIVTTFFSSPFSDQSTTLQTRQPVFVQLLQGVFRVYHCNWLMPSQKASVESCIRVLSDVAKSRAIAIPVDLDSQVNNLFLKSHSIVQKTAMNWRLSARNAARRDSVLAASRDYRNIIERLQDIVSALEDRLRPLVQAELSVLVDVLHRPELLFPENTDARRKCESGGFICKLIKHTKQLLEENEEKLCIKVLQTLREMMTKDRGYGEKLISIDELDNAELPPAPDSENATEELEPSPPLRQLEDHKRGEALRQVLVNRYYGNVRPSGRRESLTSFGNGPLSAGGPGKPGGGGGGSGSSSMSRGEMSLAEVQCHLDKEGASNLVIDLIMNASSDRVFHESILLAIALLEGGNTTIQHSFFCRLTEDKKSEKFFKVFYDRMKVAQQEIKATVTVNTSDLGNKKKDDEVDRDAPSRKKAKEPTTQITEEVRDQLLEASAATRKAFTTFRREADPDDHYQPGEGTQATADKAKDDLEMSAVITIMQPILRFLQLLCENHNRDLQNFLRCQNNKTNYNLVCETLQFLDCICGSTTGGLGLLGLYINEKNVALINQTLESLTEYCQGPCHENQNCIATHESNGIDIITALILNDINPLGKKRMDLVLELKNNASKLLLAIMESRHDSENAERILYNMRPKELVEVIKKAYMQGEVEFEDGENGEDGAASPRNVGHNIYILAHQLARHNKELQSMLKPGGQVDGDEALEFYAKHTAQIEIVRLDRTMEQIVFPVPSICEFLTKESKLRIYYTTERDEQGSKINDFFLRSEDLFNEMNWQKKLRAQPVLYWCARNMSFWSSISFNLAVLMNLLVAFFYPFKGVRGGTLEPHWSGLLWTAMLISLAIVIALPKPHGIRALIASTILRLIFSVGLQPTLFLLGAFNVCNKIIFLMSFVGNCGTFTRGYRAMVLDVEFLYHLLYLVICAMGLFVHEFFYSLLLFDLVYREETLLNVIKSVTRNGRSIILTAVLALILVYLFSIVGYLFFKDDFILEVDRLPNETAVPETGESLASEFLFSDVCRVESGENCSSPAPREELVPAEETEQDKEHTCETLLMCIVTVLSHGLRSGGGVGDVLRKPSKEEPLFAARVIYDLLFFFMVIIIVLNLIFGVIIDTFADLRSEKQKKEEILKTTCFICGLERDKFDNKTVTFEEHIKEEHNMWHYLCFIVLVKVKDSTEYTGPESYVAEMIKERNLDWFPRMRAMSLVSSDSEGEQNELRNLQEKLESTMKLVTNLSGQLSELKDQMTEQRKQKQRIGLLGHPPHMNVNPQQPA

## CCn1nc2c(c1C(=O)Nc1ccccc1OCC1CCCCO1)CCCC2 (centres unmarked) [ARN11391, 2-Ethyl-N-[2-(tetrahydropyran-2-ylmethoxy)phenyl]-4,5,6,7-tetrahydroindazole-3-carboxamide]
Vp=+40 mV, FIG. 6A
  open channel probability (Po), average: ~0.2
~10 pA at +40 mV
  attempts with single channel openings of the expected ITPR1 current amplitude: 5 out of 32
